Data: PubChem BioAssay AID588566 (The Scripps Research Institute Molecular Screening Center, 2011)

Target: Neuropeptides B/W receptor type 1 (Homo sapiens) (UniProt P48145)
Experiment: GPR7 antagonist potency, late-stage follow-up, cell-based, fluorescence, dose response, set 5 (AID 588566)
Details: GPR7-expressing cells, fluorescence antagonist assay

Sequence of Neuropeptides B/W receptor type 1 (Homo sapiens) (P48145 whole entry, looked up): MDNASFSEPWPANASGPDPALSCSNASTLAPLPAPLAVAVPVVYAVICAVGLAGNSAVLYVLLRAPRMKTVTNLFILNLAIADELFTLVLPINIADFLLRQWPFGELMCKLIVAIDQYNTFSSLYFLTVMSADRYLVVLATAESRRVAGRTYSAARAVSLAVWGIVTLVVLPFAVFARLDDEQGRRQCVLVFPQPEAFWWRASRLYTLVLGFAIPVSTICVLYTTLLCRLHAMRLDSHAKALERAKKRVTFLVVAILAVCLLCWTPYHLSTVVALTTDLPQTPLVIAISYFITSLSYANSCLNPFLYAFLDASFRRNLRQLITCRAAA

| IC50 [nM] | SMILES |
| --- | --- |
| 527 | COc1ccc(Oc2c(Cl)cnn(C3=Nc4cc(Cl)ccc4Oc4ncccc43)c2=O)cc1 |
| 1790 | COc1cc(Oc2c(Cl)cnn(Cc3cccc4ccccc34)c2=O)cc(OC)c1OC |
| 3110 | COc1ccc(Oc2c(Cl)cnn(C3c4ccccc4Oc4ccccc43)c2=O)cc1 |
| 8550 | CCc1cccc(Oc2c(Cl)cnn(Cc3cccc4ccccc34)c2=O)c1 |
| 2210 | COc1ccc(Oc2c(Cl)cnn(-c3nc4ccccc4c(=O)c4ccccc34)c2=O)cc1 |
| 834 | O=c1c(Oc2ccc3c(c2)CCC3)c(Cl)cnn1Cc1cccc2ccccc12 |
